The text below walks through data of PMC10800876, “Evaluation of proline-rich antimicrobial peptides as potential lead structures for novel antimycotics against Cryptococcus neoformans” (Frontiers in Microbiology, 2024).

Converted amounts (≈) assume the structure as drawn. Where two headings read alike, the source gives them in different places. Starred links: 1 amine or outer side, 2 acyl side, 3 side chain; linkers in the order of their positions; H or OH if unused. Non-standard residues stand in square brackets, D forms with d. Residues, ends and D or L forms follow the SMILES beside them. *: point of attachment. 5FAM = O=C1OC2(c3ccc(O)cc3Oc3cc(O)ccc32)c2ccc(C(=O)*)cc21; δOrn(α-TMG) = CN(C)C(=N[C@@H](CCCN[*:1])C(=O)[*:2])N(C)C; Ac6c = NC1(C(=O)O)CCCCC1 Some results are limits rather than exact numbers.

The subject of test [1] is C. neoformans 1841 (serotype D). The following applies: for activity of Cf-labeled peptide relative to the corresponding unlabeled peptide: C. neoformans 1841.
For test [2], the system named is C. neoformans KN99α (serotype A, mating type MATα).
In test [3] the test system is C. neoformans H99 (serotype A).

For `CC[C@H](C)[C@H](NC(=O)[C@@H](CCCNC(=N)N)NC(=O)[C@H](CCCNC(=N)N)NC(=O)[C@@H]1CCCN1C(=O)[C@@H]1CCCN1C(=O)[C@H](CCCNC(=N)N)NC(=O)[C@@H]1CCCN1C(=O)[C@H](CCCNC(=N)N)NC(=O)[C@@H]1CCCN1C(=O)[C@H](CC(C)C)NC(=O)[C@H](Cc1ccc(O)cc1)NC(=O)[C@@H]1CCCN1C(=O)[C@@H]1CCCN1C(=O)[C@H](CCCCN)NC(=O)[C@H](CC(=O)O)NC(=O)[C@@H](NC(=O)c1ccc2c(c1)C(=O)OC21c2ccc(O)cc2Oc2cc(O)ccc21)C(C)C)C(=O)N[C@@H](Cc1ccc(O)cc1)C(=O)N[C@@H](CC(N)=O)C(=O)N[C@H](CCCNC(=N)N)C(N)=O` [Cf-Onc112] (5FAM-VDKPPYLPRPRPPR[dR]IYN[dR]-NH2), the “MIC (mg/L) 24 h, Cf-labeled peptides” value in test [1] (1841 (serotype D, 24 h)) was in the range of 4 to 8 mg/L. In test [1] (1841 (serotype D, 48 h)), the “MIC (after 48 h)” value came to 6.7 µM (≈ 18.4 µg/mL) and the “MIC (mg/L) 48 h, Cf-labeled peptides” value fell in the range of 4 to 8 mg/L. Besides, the “activity of Cf-labeled peptide relative to the corresponding unlabeled peptide” value in test [1] is given as “slightly more active”.
As to `CC[C@H](C)[C@H](NC(=O)[C@H](CCCNC(=N)N)NC(=O)[C@H](CC(C)C)NC(=O)[C@@H]1CCCN1C(=O)CN)C(=O)N[C@@H](Cc1ccc(O)cc1)C(=O)N[C@H](C(=O)N1CCC[C@H]1C(=O)N[C@@H](Cc1c[nH]cn1)C(=O)N1CCC[C@H]1C(=O)N1CCC[C@H]1C(=O)N1CCC[C@H]1C(=O)N[C@@H](CCCNC(=N)N)C(=O)N1CCC[C@H]1C(=O)N[C@@H](CC(N)=O)C(=O)N[C@@H](CCC(N)=O)C(=O)N[C@@H](CC(N)=O)C(=O)N[C@@H](CCCNC(=N)N)C(=O)O)C(C)C` [Apidaecin 1b scr] (H-GPLRIYVPHPPPRPNQNR-OH), the “MIC (μmol/L) KN99α 24 h” value in test [2] (KN99α (serotype A, mating type MATα, 24 h)) was above 61 µmol/L. Besides, in test [2] (KN99α (serotype A, mating type MATα, 48 h)), the “MIC (μmol/L) KN99α 48 h” value was above 61 µmol/L. Further, the “MIC (μmol/L) H99 24 h” value in test [3] (H99 (serotype A, 24 h)) was above 61 µmol/L. Besides, the “MIC (μmol/L) H99 48 h” value in test [3] (H99 (serotype A, 48 h)) is above 61 µmol/L. In test [1] (1841 (serotype D, 24 h, pH 7.5)), the “MIC (μmol/L) 1841 24 h” value is above 61 µmol/L. Further, in test [1] (1841 (serotype D, 48 h, pH 7.5)), the “MIC (μmol/L) 1841 48 h” value is above 61 µmol/L.
For `CC(C)C[C@H](NC(=O)[C@H](Cc1ccc(O)cc1)NC(=O)[C@@H]1CCCN1C(=O)[C@H](CCCNC(=N)N)NC(=O)[C@@H]1CCCN1C(=O)[C@H](CCCCN)NC(=O)[C@H](CC(=O)O)NC(=O)[C@@H]1CCCN1C(=O)[C@H](CCCNC(=N)N)NC(=O)C1(NC(=O)c2ccc3c(c2)C(=O)OC32c3ccc(O)cc3Oc3cc(O)ccc32)CCCCC1)C(=O)N1CCC[C@H]1C(=O)N[C@@H](CCCNC(=N)N)C(=O)N1CCC[C@H]1C(=O)N[C@@H](CCCNC(=N)N)C(=O)N1CCC[C@H]1C(=O)N1CCC[C@H]1C(=O)N[C@@H](CCCNC(=N)N)C(=O)N1CCC[C@H]1C(=O)N[C@H](C(=O)N[C@@H](CCCNC(=N)N)C(N)=O)C(C)C` [Cf-Chex1Arg20] (5FAM-[Ac6c]RPDKPRPYLPRPRPPRPVR-NH2), the “MIC (after 48 h)” value in test [1] (1841 (serotype D, 48 h)) is 3.2 µM (≈ 9.07 µg/mL). The “activity of Cf-labeled peptide relative to the corresponding unlabeled peptide” value in test [1] was “slightly more active”. For the same compound, the “MIC (mg/L) 24 h, Cf-labeled peptides” value in test [1] (C. neoformans 1841, read after 24 h, mean of three replicates (n = 3)) is reported as 4 mg/L (≈ 1.41 µM). Further, the “MIC (mg/L) 48 h, Cf-labeled peptides” value in test [1] (C. neoformans 1841, read after 48 h, mean of three replicates (n = 3)) came out at 4 mg/L (≈ 1.41 µM).
Take `CC[C@H](C)[C@H](NC(=O)[C@H](Cc1ccc(O)cc1)NC(=O)[C@@H](NC(=O)[C@@H]1CCCN1C(=O)[C@H](CCCNC(=N)N)NC(=O)[C@H](CC(N)=O)NC(=O)[C@H](CC(N)=O)NC(=O)[C@H](CCCNC(=O)c1ccc2c(c1)C(=O)OC21c2ccc(O)cc2Oc2cc(O)ccc21)N=C(N(C)C)N(C)C)C(C)C)C(=O)N1CCC[C@H]1C(=O)N[C@@H](CCCNC(=N)N)C(=O)N1CCC[C@H]1C(=O)N[C@@H](CCCNC(=N)N)C(=O)N1CCC[C@H]1C(=O)N1CCC[C@H]1C(=O)N[C@@H](Cc1c[nH]cn1)C(=O)N1CCC[C@H]1C(=O)N[C@@H](CCCNC(=N)N)C(=O)N[C@@H](CC(C)C)C(=O)O` [Cf-Api137] (5FAM-[δOrn(α-TMG)]NNRPVYIPRPRPPHPRL-OH): the “MIC (mg/L) 24 h, Cf-labeled peptides” value in test [1] (1841 (serotype D, 24 h)) is reported as above 64 mg/L. In test [1] (1841 (serotype D, 48 h)), the “MIC (after 48 h)” value came out at 28 µM (≈ 74.2 µg/mL) and the “MIC (mg/L) 48 h, Cf-labeled peptides” value is on record as above 64 mg/L. For the same compound, the “activity of Cf-labeled peptide relative to the corresponding unlabeled peptide” value in test [1] is listed as “slightly less active”.
For `CC[C@H](C)[C@H](NC(=O)[C@H](Cc1ccc(O)cc1)NC(=O)[C@@H](NC(=O)[C@@H]1CCCN1C(=O)[C@H](CCCNC(=N)N)NC(=O)[C@H](CC(N)=O)NC(=O)[C@H](CC(N)=O)NC(=O)[C@H](CCCNC(=O)c1ccc2c(c1)C(=O)OC21c2ccc(O)cc2Oc2cc(O)ccc21)N=C(N(C)C)N(C)C)C(C)C)C(=O)N1CCC[C@H]1C(=O)N[C@@H](CCCNC(=N)N)C(=O)N1CCC[C@H]1C(=O)N[C@@H](CCCNC(=N)N)C(=O)N1CCC[C@H]1C(=O)N1CCC[C@H]1C(=O)N[C@@H](Cc1c[nH]cn1)C(=O)N1CCC[C@H]1C(=O)N[C@@H](CCCNC(=N)N)C(=O)N[C@@H](CC(C)C)C(N)=O` [Cf-Api88] (5FAM-[δOrn(α-TMG)]NNRPVYIPRPRPPHPRL-NH2), the “MIC (mg/L) 24 h, Cf-labeled peptides” value in test [1] (1841 (serotype D, 24 h)) is reported as 32 mg/L (≈ 12.1 µM). In test [1] (1841 (serotype D, 48 h)), the “MIC (after 48 h)” value was determined as 7.0 µM (≈ 18.5 µg/mL) and the “MIC (mg/L) 48 h, Cf-labeled peptides” value was 32 to 64 mg/L. The “activity of Cf-labeled peptide relative to the corresponding unlabeled peptide” value in test [1] is reported as “slightly less active”.
